Results reported in patent US20040132817A1, “Use of an histone deacetylase inhibitor for the treatment of diseases associated with an hpv infection” (priority 2001, published 2004).

Key:
Type in all cases: cell-based, human
[1] = test system: cyclin A; experiment: Western blot of cyclin A in HeLa cells; conditions: 16 hours
Experimental: 50 μg of protein were separated on 12% SDS-PAGE minigels. After electrotransfer, the filters were incubated with antibodies against cyclin D1, cyclin E, cyclin A or cdk2, cdk4 or cdk6 specific antibodies. Equal protein loading was confirmed by reincubating the filters with a monoclonal actin antibody.
(§1) Cellular extracts were separated in 8-12% SDS PAGE gels and electrotransferred as described elsewhere (Finzer et al., Oncogene 19 (2000), 3235-3244; Soto et al., Oncogene 18 (1999), 3187-3198). The following antibodies were used: cyclin E (HE 12), cyclin D 1 (HD 11), cdk2 (M2), (D-12; Santa Cruz Biotechnology, Inc., Santa Cruz, USA), cdk4 (C-22), cdk6 (C-21), p27^KIP1 (C-19), (K25020), p45^SKP2 (N-19), HPV18-E7 (N-19) and E2F-1 (KH95) (Santa Cruz Biotechnology, Inc. Santa Cruz, USA), p21^CIP1 (C24420; Transduction Laboratories, Lexington, USA), pRB (NCL-RB; Novocastra, UK), p16^INK4 (15126E, Pharmingen, San Diego, USA) and HPV 16 E7 (ZYMED Lab. Inc., San Francisco, USA). Cyclin A was kindly provided by M. Pagano (Pagano et al., EMBO J. 11 (1992), 961-971). Equal protein transfer and loading was routinely checked by incubating the filters with a monoclonal actin antibody (ICN Biomedicals, Ohio, USA).
50 μg of protein was separated on 12% SDS-PAGE minigels. […]

[2] = test system: p21^CIP1; experiment: Western blot of p21^CIP1 in HeLa cells; conditions: 16 hours
Experimental: (A) Westem blot analysis. 50 μg of cellular protein were loaded on SDS-PAGE minigels. After electrotransfer, the filters were incubated with p21^CIP1, p27^KIP1, p16^INK4 and p45^SKP2. Equal protein loading was confirmed by a monoclonal actin antibody.
as §1
Western blot analysis. 50 μg of cellular protein was loaded on SDS-PAGE minigels. After electrotransfer, the filters were incubated with p21^CIP1, p27^KIP1, p16^INK4 and p45^SKP2. […]

[3] = test system: cyclin-cdk2 complex; experiment: Western blot analysis of cdk2 immunoprecipitates from HeLa cells (p21, p27, E7 binding)
Description: (B-E) Western blot analysis of the cdk2 complex. Cdk2 precipitates were separated in a 12% SDS-PAGE gel and immunoblotted with p21^CIP1 (B), p27^KIP1 (C) and HPV18 E7 specific antibodies.
(B) Cdk2 activity after NaB application. Upper panel: Cdk 2 complexes were immunoprecipitated and assayed for their activity using histone H1 as substrate. Lower panels: Western blot analysis of the cdk 2 complexes which were precipitated, separated in a 12% SDS-PAGE gel and immunoblotted with specific antibodies used in panel A. Loading was verified by incubation with cdk 2 antibodies.
For cell fractionation, cell monolayers were washed twice with PBS and harvested by trypsinisation. Cell extract preparation and cdk2 activity assays were exactly done as described by Blomberg and Hoffmann, Mol. Cell. Biol. 19 (1999), 6183-6194. In addition, cdk2 was immunoprecipitated and analyzed by immunoblotting. Beads used for cdk2 kinase assay were washed 3 times with lysis buffer (Blomberg and Hoffmann, 1999), incubated with Laemmli sample buffer and boiled for 5 min. Supernatant was analyzed by SDS-PAGE gels. Immunoblotting was carried out with the following antibodies: p21^CIP1 (C24420) and p27^KIP1 (K25020; Transduction Laboratories) or HPV18-E7 (N-19; Santa Cruz, Inc.). Cdk2 specific antibodies or preimmune serum were kindly provided by I. Hoffmann (DKFZ, Heidelberg).
Western blot analysis of the cdk2 complex. Cdk2 precipitates were separated in a 12% SDS-PAGE gel and immunoblotted with p21^CIP1, p27^KIP1 and HPV 18 E7 specific antibodies. Equal loading was verified by incubation with cdk2 antibodies. PI: preimmune serum. (Contr.): untreated cells; (DMSO): DMSO control; (TSA): treated with 330 nM trichostatin A for 16 hours.

[4] = test system: pRb; experiment: Western blot of pRb in HeLa cells; conditions: 16 hours
Experimental: (B and C) Western blot analysis. 50 μg of protein were separated in 8% (for pRb) and 12% SDS-PAGE gels. After electrotransfer, the filters were incubated with pRb, E2F-1 (B) and (C) p53 specific antibodies. Equal protein loading was confirmed with a monoclonal actin antibody.
as §1
Western blot analysis: 50 μg of protein was separated in 8% (for pRb) and 12% SDS-PAGE gels. After electrotransfer, the filters were incubated with pRb, E2F-1 (f) and (g) p53 specific antibodies. […]

[5] = 330 nM trichostatin A, 16 hours

Compound	cyclin A protein level ([1]; 6 mM sodium butyrate)	p21^CIP1 protein level ([2]; 6 mM sodium butyrate)	E7 in the cdk2 complex ([3]; 6 mM sodium butyrate, 16 hours)	association of p21^CIP1 and p27^KIP1 with the cdk2 complex ([3]; 6 mM sodium butyrate, 16 hours)	E7 bound to cyclin-cdk2 complexes, time course ([3]; NaB time course)	association of p21^CIP1 and p27^KIP1 with the cdk2 complex, time course ([3]; NaB time course)	pRb protein level ([4]; 6 mM sodium butyrate)	cyclin A protein level ([1]; 330 nM trichostatin A)	p21^CIP1 protein level ([2]; 330 nM trichostatin A)	E7 binding to the cdk2 complex [3, 5]	interaction of p21^CIP1 and p27^KIP1 with cdk2 [3, 5]	pRb protein level ([4]; 330 nM trichostatin A)
CCCC(=O)[O-].[Na+] [sodium butyrate]	selectively downregulates	significantly induced	completely disappeared	both CK1s became associated with the cdk2 complex	completely disappeared between 12-16 hours	threshold amounts of both CKIs became associated with the cdk2 complex (between 12-16 hours)	totally degraded					
CC(/C=C/C(=O)NO)=C\[C@@H](C)C(=O)c1ccc(N(C)C)cc1 [trichostatin A]								Downregulates	Induces	Loss of E7 Binding	Enhanced Interaction	Mediates pRB Degradation
